Tests used:
KRAS G12D/RAF1 = target: T1, KRAS G12D/RAF1 (Homo sapiens, UniProt P01116, G12D); assay: Protein-protein interaction (PPI) HTRF assay KRAS G12D/RAF1; type: binding; conditions: Table 4
T1 construct: His6-MBP (N, cleaved yes); made in house; host or cells: E. coli
How it was run: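 Biotinylated human KRAS (1-169; wt, G12D, G12V) or wt NRAS, GppNHp-loaded, pre-incubated 30 min RT with compound and streptavidin-d2, then His-RAF1 RBD (52-131) with anti-6His Tb cryptate added for 1 h RT. HTRF 665/615 ratio normalized to no compound (0%) and untagged RAF1 (100%); IC50.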

[1] = test system: GP2D cells (KRAS G12D), phospho-ERK; assay: pERK In Cell Western (ICW) assay, GP2D cells; type: cell-based; conditions: Table 4, 3 hours
Method: pERK ICW is a high throughput screening assay to evaluate the cellular potency of mutant KRAS small molecule inhibitors. KRAS mutant cell lines AGS and GP2D (KRAS^G12D) were purchased from ATCC and maintained respectively in RPMI and DMEM medium supplemented with 10% fetal bovine serum and Penicillin/Streptomycin.
Cells grown in exponential phase were trypsinized, resuspended in fresh media, and viable cells were counted using a cell counter with Trypan Blue (BioRad TC20). Cells were seeded into 384-well plate (Greiner 781091) at density of 5,000 cells/well for AGS and 10,000 cells/well for GP2D and allowed to grow overnight in a 37° C. CO2 incubator. The next day, compounds were dispensed into wells with a ½ log, 10-point serial dilution and top concentration of […] using Tecan D300e dispenser and incubated for 3 hours in a 37° C. CO2 incubator. Cells were then fixed with paraformaldehyde (Electron Microscopy Sciences, 15710, 4% final concentration) for 30 min, permeabilized with wash buffer (1×PBS+0.1% Triton X-100) for 30 min and blocked with Odyssey blocking buffer (Li—COR 927-70001) for 1 hour, all at room temperature (RT). Phospho-ERK antibody (CST 4370L) was diluted 1:500 in Odyssey blocking+0.2% Tween 20 and incubated with cells overnight at 4° C. The next day, plates were washed 5× with wash buffer, incubated with IRDye 800 CW, Goat anti-Rabbit secondary antibody (Li—COR 926-32211, 1:500) and DRAQ5 (CST 4084L, 1:5,000) diluted in Odyssey blocking+0.2% Tween 20 for 1 hour, washed 5×, and imaged on an Odyssey CLx imaging system.
For data analysis, signal intensities from 800 (phosphor-ERK) and 700 (DRAQ5) channels were extracted, and phospho-ERK signals were normalized to DRAQ5 signals for each well and percent of DMSO control values were computed. Data were then imported into Graphpad Prism to compute half-maximal inhibitory concentrations (IC50) using a 4-parameter variable slope model. Z-factor for each plate was computed from signals derived from wells treated with either DMSO or […] of Trametinib. AGS pERK ICW (Method B) IC50 (uM) values of selected compounds are depicted in Table 2 with compounds having a value 0.001 uM to 0.01 uM as ++++; >0.01 uM to 0.1 uM as +++; >0.1 uM to 1 uM as ++; 1 uM to 10 uM as + and >10 uM as NA.

T1 sequence (P01116 with tags, fused parts or gaps isoform P01116-2 G12D): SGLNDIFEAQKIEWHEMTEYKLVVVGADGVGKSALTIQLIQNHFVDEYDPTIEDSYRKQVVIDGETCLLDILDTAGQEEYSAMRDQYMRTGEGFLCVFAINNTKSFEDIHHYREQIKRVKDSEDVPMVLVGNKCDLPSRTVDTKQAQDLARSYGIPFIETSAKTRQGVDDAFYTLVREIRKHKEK

Compound N#Cc1c(N2C[C@H]3CC[C@@H](C2)N3)nc(OCC2(CN3CCC(F)(F)CC3)CC2)nc1N1CC2(CCc3sc(N)c(C#N)c32)C1 [Compound 34, 2-amino-1′-[5-cyano-6-(3,8-diazabicyclo[3.2.1]octan-3-yl)-2-[[1-[(4,4-difluoro-1-piperidyl)methyl]cyclopropyl]methoxy]pyrimidin-4-yl]spiro[5,6-dihydrocyclopenta[b]thiophene-4,3′-azetidine]-3-carbonitrile] has an IC50 (KRAS G12D/RAF1) of 100 to 1000 nM and an IC50 [1] of 1 to 10 nM.
Compound N#Cc1c(N2CCCC(O)CC2)nc(OC[C@@]23CCCN2C[C@H](F)C3)nc1N1CC2(CCc3sc(N)c(C#N)c32)C1 (stereo partly drawn) [Compound 40, 2-amino-1′-[5-cyano-6-(4-hydroxyazepan-1-yl)-2-[[(2R,8S)-2-fluoro-1,2,3,5,6,7-hexahydropyrrolizin-8-yl]methoxy]pyrimidin-4-yl]spiro[5,6-dihydrocyclopenta[b]thiophene-4,3′-azetidine]-3-carbonitrile] has an IC50 (KRAS G12D/RAF1) of 1000 to 10000 nM and an IC50 [1] of 100 to 1000 nM.
N#Cc1c(N2C[C@H]3CC[C@@H](C2)N3)nc(OCC2(CN3CCOCC3)CC2)nc1N1CC2(CCCc3sc(N)c(C#N)c32)C1 [Compound 41, 2-amino-1′-[5-cyano-2-[[1-(morpholinomethyl)cyclopropyl]methoxy]-6-[(1R,5S)-3,8-diazabicyclo[3.2.1]octan-3-yl]pyrimidin-4-yl]spiro[6,7-dihydro-5H-benzothiophene-4,3′-azetidine]-3-carbonitrile] was tested, and the IC50 (KRAS G12D/RAF1) was 100 to 1000 nM and the IC50 [1] was 1 to 10 nM.
Work on N#Cc1c(N2C[C@H]3COC[C@@H](C2)N3)nc(OCC2(CN3CCOCC3)CC2)nc1N1CC2(CCc3sc(N)c(C#N)c32)C1 [Compound 42, 2-amino-1′-[5-cyano-2-[[1-(morpholinomethyl)cyclopropyl]methoxy]-6-(3-oxa-7,9-diazabicyclo[3.3.1]nonan-7-yl)pyrimidin-4-yl]spiro[5,6-dihydrocyclopenta[b]thiophene-4,3′-azetidine]-3-carbonitrile] yielded an IC50 (KRAS G12D/RAF1) of 1000 to 10000 nM and an IC50 [1] of 100 to 1000 nM.
N#Cc1c(N2CC3COCC(C2)N3)nc(OC[C@]23CCCN2C[C@@H](F)C3)nc1N1CC2(CCc3sc(N)c(C#N)c32)C1 [Compound 43, 2-amino-1′-[5-cyano-2-[[(2S,8R)-2-fluoro-1,2,3,5,6,7-hexahydropyrrolizin-8-yl]methoxy]-6-(3-oxa-7,9-diazabicyclo[3.3.1]nonan-7-yl)pyrimidin-4-yl]spiro[5,6-dihydrocyclopenta[b]thiophene-4,3′-azetidine]-3-carbonitrile] gave an IC50 (KRAS G12D/RAF1) of 1000 to 10000 nM and an IC50 [1] of 100 to 1000 nM.
In the case of CC1CC2(CN(c3nc(OCC4(CN5CCOCC5)CC4)nc(N4C[C@H]5CC[C@@H](C4)N5)c3C#N)C2)c2c1sc(N)c2C#N (stereo partly drawn) [Compound 45, 2-amino-1-[5-cyano-2-[[1-(morpholinomethyl)cyclopropyl]methoxy]-6-[(1R,5S)-3,8-diazabicyclo[3.2.1]octan-3-yl]pyrimidin-4-yl]-6-methyl-spiro[5,6-dihydrocyclopenta[b]thiophene-4,3′-azetidine]-3-carbonitrile], the IC50 (KRAS G12D/RAF1) is reported as 100 to 1000 nM and the IC50 [1] is reported as 1 to 10 nM.
Cc1nc(-c2nn3c(c2Cl)CN(c2nc(OC[C@@]45CCCN4C[C@H](F)C5)nc(N4CC5(CCc6sc(N)c(C#N)c65)C4)c2C#N)CCC3)no1 [Compound 46, 2-amino-1′-[6-[3-chloro-2-(5-methyl-1,2,4-oxadiazol-3-yl)-4,6,7,8-tetrahydropyrazolo[1,5-a][1,4]diazepin-5-yl]-5-cyano-2-[[(2R,8S)-2-fluoro-1,2,3,5,6,7-hexahydropyrrolizin-8-yl]methoxy]pyrimidin-4-yl]spiro[5,6-dihydrocyclopenta[b]thiophene-4,3′-azetidine]-3-carbonitrile] was tested, and the IC50 (KRAS G12D/RAF1) was 1000 to 10000 nM and the IC50 [1] was 10 to 100 nM.
For CN(C)C1(COc2nc(N3C[C@H]4CC[C@@H](C3)N4)c(C#N)c(N3CC4(CCc5sc(N)c(C#N)c54)C3)n2)CC1 [Compound 47, 2-amino-1′-[5-cyano-6-[(1R,5S)-3,8-diazabicyclo[3.2.1]octan-3-yl]-2-[[1-(dimethylamino)cyclopropyl]methoxy]pyrimidin-4-yl]spiro[5,6-dihydrocyclopenta[b]thiophene-4,3′-azetidine]-3-carbonitrile], the IC50 (KRAS G12D/RAF1) was 10000 to 100000 nM and the IC50 [1] was 10 to 100 nM.
With CN(CCOc1nc(N2C[C@H]3CC[C@@H](C2)N3)c(C#N)c(N2CC3(CCc4sc(N)c(C#N)c43)C2)n1)C1CCC1 [Compound 48, 2-amino-1′-[5-cyano-2-[2-[cyclobutyl(methyl)amino]ethoxy]-6-[(1R,5S)-3,8-diazabicyclo[3.2.1]octan-3-yl]pyrimidin-4-yl]spiro[5,6-dihydrocyclopenta[b]thiophene-4,3′-azetidine]-3-carbonitrile] the IC50 (KRAS G12D/RAF1) was 10000 to 100000 nM and the IC50 [1] was 100 to 1000 nM.
N#Cc1c(N2CCCC(=O)CC2)nc(OC[C@@]23CCCN2C[C@H](F)C3)nc1N1CC2(CCc3sc(N)c(C#N)c32)C1 [Compound 49, 2-amino-1′-[5-cyano-2-[[(2R,8S)-2-fluoro-1,2,3,5,6,7-hexahydropyrrolizin-8-yl]methoxy]-6-(4-oxoazepan-1-yl)pyrimidin-4-yl]spiro[5,6-dihydrocyclopenta[b]thiophene-4,3′-azetidine]-3-carbonitrile] showed an IC50 (KRAS G12D/RAF1) of 10000 to 100000 nM and an IC50 [1] of 100 to 1000 nM.
CN(C)CC1(COc2nc(N3C[C@H]4CC[C@@H](C3)N4)c(C#N)c(N3CC4(CCc5sc(N)c(C#N)c54)C3)n2)COC1 [Compound 52, 2-amino-1′-[5-cyano-6-[(1R,5S)-3,8-diazabicyclo[3.2.1]octan-3-yl]-2-[[3-[(dimethylamino)methyl]oxetan-3-yl]methoxy]pyrimidin-4-yl]spiro[5,6-dihydrocyclopenta[b]thiophene-4,3′-azetidine]-3-carbonitrile] was tested, and the IC50 (KRAS G12D/RAF1) was 100 to 1000 nM and the IC50 [1] was 1 to 10 nM.
Work on N#Cc1c(N2CCCn3nc(C(=O)C4CC4)c(Cl)c3C2)nc(OC[C@@]23CCCN2C[C@H](F)C3)nc1N1CC2(CCc3sc(N)c(C#N)c32)C1 [Compound 62, 2-amino-1′-[6-[3-chloro-2-(cyclopropanecarbonyl)-4,6,7,8-tetrahydropyrazolo[1,5-a][1,4]diazepin-5-yl]-5-cyano-2-[[(2R,8S)-2-fluoro-1,2,3,5,6,7-hexahydropyrrolizin-8-yl]methoxy]pyrimidin-4-yl]spiro[5,6-dihydrocyclopenta[b]thiophene-4,3′-azetidine]-3-carbonitrile] yielded an IC50 (KRAS G12D/RAF1) of 10000 to 100000 nM and an IC50 [1] of 10 to 100 nM.
For N#Cc1c(N2C[C@H]3CC[C@@H](C2)N3)nc(OCC2(CN3CCOCC3)CC2)nc1N1CC2(CCCCc3sc(N)c(C#N)c32)C1 [Compound 70, 2-amino-1′-[5-cyano-2-[[1-(morpholinomethyl)cyclopropyl]methoxy]-6-[(1R,5S)-3,8-diazabicyclo[3.2.1]octan-3-yl]pyrimidin-4-yl]spiro[5,6,7,8-tetrahydrocyclohepta[b]thiophene-4,3′-azetidine]-3-carbonitrile], the IC50 (KRAS G12D/RAF1) was 100 to 1000 nM and the IC50 [1] was 10 to 100 nM.
In the case of N#Cc1c(N2C[C@H]3CC[C@@H](C2)N3)nc(OCC2(CN3CC[S+]([O-])CC3)CC2)nc1N1CC2(CCc3sc(N)c(C#N)c32)C1 [Compound 71, 2-amino-1′-[5-cyano-6-[(1R,5S)-3,8-diazabicyclo[3.2.1]octan-3-yl]-2-[[1-[(1-oxo-1,4-thiazinan-4-yl)methyl]cyclopropyl]methoxy]pyrimidin-4-yl]spiro[5,6-dihydrocyclopenta[b]thiophene-4,3′-azetidine]-3-carbonitrile], the IC50 (KRAS G12D/RAF1) is reported as 1000 to 10000 nM and the IC50 [1] is reported as 100 to 1000 nM.
N#Cc1c(N2C[C@H]3CC[C@@H](C2)N3)nc(OCC2(CN3CCOCC3)CC2)nc1N1CC2(CSc3sc(N)c(C#N)c32)C1 [Compound 73, 5-amino-1′-[5-cyano-2-[[1-(morpholinomethyl)cyclopropyl]methoxy]-6-[(1R,5S)-3,8-diazabicyclo[3.2.1]octan-3-yl]pyrimidin-4-yl]spiro[2H-thieno[2,3-b]thiophene-3,3′-azetidine]-4-carbonitrile] gave an IC50 (KRAS G12D/RAF1) of 100 to 1000 nM and an IC50 [1] of 1 to 10 nM.

Source: patent US12145947B2, “Pyrimidine based modulators and uses thereof” (Quanta Therapeutics, Inc., priority 2022, dated 2024)
